Experimental data as given in patent publication US20240099304A1, “SYNERGISTIC HERBICIDAL COMPOSITIONS OF METAMIFOP” (Parijat Industries (India) Private Limited, priority 2021, published 2024).

Columns and labels:
Type in all cases: in vivo
[1] = tested on: Echinochloa crusgalli; experiment: Field efficacy on grass weed in soybean, post-emergence foliar application
Description: (§1) As described in the Herbicide Handbook of the Weed Science Society of America, Ninth Edition, 2007, p. 429, “synergism” [is] an interaction of two or more factors such that the effect when combined is greater than the predicted effect based on the response to each factor applied separately. In the Colby method, the expected (or predicted) response of a combination of herbicides is calculated by taking the product of the observed response for each individual component of the combination when applied alone divided by 100 and subtracting this value from the sum of the observed response for each component while applied alone. An unexpected enhancement in efficacy of the combination is then determined by comparing the observed response of the combination to the expected (or predicted) response as calculated from the observed response of each individual component alone. If the observed response of the combination is greater than the expected (or predicted) response, or stated conversely, if the difference between the observed and expected response is greater than zero, then the combination is said to be synergistic or unexpectedly effective. (Colby, S. R., Weeds, 1967(15), p. 20-22). The Colby method required only a single dose of each herbicide applied alone and the mixture of both doses.
(§2) Synergy Study: The following formula was used to calculate the expected activity of mixtures containing active ingredients, A and B:
(§3) • A=Observed efficacy of active ingredient (combination of Metamifop and Imidazolinone herbicides) A at the same concentration as used in the mixture. • B=observed efficacy of active ingredient B at the same concentration as used in the mixture. However, following formula was used to calculate the expected activity of mixtures containing three active ingredients, A, B and C:
(§4) • A=observed efficacy of active ingredient (combination of Metamifop and Imidazolinone herbicides) A at the same concentration as used in the mixture. • B=observed efficacy of active ingredient B at the same concentration as used in the mixture. • C=observed efficacy of active ingredient C at the same concentration as used in the mixture.
(§5) EFFICACY STUDY: The field experiments were carried out to test the synergy of the combination Metamifop, Imazethapyr, and Imazamox in India at various locations like in MP, Maharashtra, Karnataka, and Telangana on farmer's field against soybean weeds during Kharif season. The experiment comprising of 15 treatments including premixed binary and ternary combinations along with their stand-alone molecule using a randomized block design replicated thrice. All the treatments were applied as post-emergence foliar application when the weeds reached to two to four leaf stage. The spray was conducted with the help of Battery-operated Knapsack sprayer. The percentage efficacy was calculated after 14 and 21 days after application of herbicides.
(§6) The weeds present in the experimental fields were echinochloa conola, echinochloa crusgalli, brachiaria euriciformis, rottboellia cochinchinensis, cynodon dactylon, parthenium hyterophorus, digera arvensis, cynotis axillaris, acalypha indica, Commelina benghalensis, celosia argentia, cyperus spp.

[2] = tested on: Brachiaria eruciformis; experiment: as above
Description: as §1, §2, §3, §4, §5, §6

[3] = tested on: Rottboellia cochinchinensis; experiment: as above
Description: as §1, §2, §3, §4, §5, §6

[4] = tested on: hard to kill broad leaf weeds; experiment: Field efficacy, summary on broad leaf weeds
Description: as §1, §5

[5] = tested on: Commelina benghalensis; experiment: Field efficacy on broad leaf weed in soybean, post-emergence foliar application
Description: as §1, §2, §3, §4, §5, §6

[6] = tested on: Cyanotis axillaris; experiment: as above
Description: as §1, §2, §3, §4, §5, §6

[7] = tested on: Parthenium hysterophorus; experiment: as above
Description: as §1, §2, §3, §4, §5, §6

[8] = tested on: Soybean; experiment: Phytotoxicity in Soybean, visual grading on 0-10 scale; parameters: key: visual phytotoxicity grade on 0-10 scale; details: Soybean
Description: as §5
Phytotoxic effect of herbicidal combination of Metamifop, Imazethapyr and Imazamox in soyabean: Table 5, 10 show the visual observations and grading on phytotoxicity which was recorded for leaf injury on tip/surface, Epinasty/Hyponasty, and wilting etc. on 0-10 scale (as below) at 1, 3, 7, 14 and 21 days after application of the present herbicidal composition.

## COCc1cnc(C2=NC(C)(C(C)C)C(=O)N2)c(C(=O)O)c1 (centres unmarked) [Imazamox]
[1]; 14 DAA, Imazamox 20 gm ai/ha
  % Weed control burn down symptoms generation Observed: 0%
[1]; 14 DAA, Imazamox 30 gm ai/ha
  % Weed control burn down symptoms generation Observed: 0%
[1]; 14 DAA, Imazamox 35 gm ai/ha
  % Weed control burn down symptoms generation Observed: 0%
[1]; 21 DAA, Imazamox 20 gm ai/ha
  % Weed control burn down symptoms generation Observed: 0%
[1]; 21 DAA, Imazamox 30 gm ai/ha
  % Weed control burn down symptoms generation Observed: 0%
[1]; 21 DAA, Imazamox 35 gm ai/ha
  % Weed control burn down symptoms generation Observed: 0%
[2]; 14 DAA, Imazamox 20 gm ai/ha
  % Weed control burn down symptoms generation Observed: 0%
[2]; 14 DAA, Imazamox 30 gm ai/ha
  % Weed control burn down symptoms generation Observed: 0%
[2]; 14 DAA, Imazamox 35 gm ai/ha
  % Weed control burn down symptoms generation Observed: 0%
[2]; 21 DAA, Imazamox 20 gm ai/ha
  % Weed control burn down symptoms generation Observed: 0%
[2]; 21 DAA, Imazamox 30 gm ai/ha
  % Weed control burn down symptoms generation Observed: 0%
[2]; 21 DAA, Imazamox 35 gm ai/ha
  % Weed control burn down symptoms generation Observed: 0%
[3]; 14 DAA, Imazamox 20 gm ai/ha
  % Weed control burn down symptoms generation Observed: 0%
[3]; 14 DAA, Imazamox 30 gm ai/ha
  % Weed control burn down symptoms generation Observed: 0%
[3]; 14 DAA, Imazamox 35 gm ai/ha
  % Weed control burn down symptoms generation Observed: 0%
[3]; 21 DAA, Imazamox 20 gm ai/ha
  % Weed control burn down symptoms generation Observed: 0%
[3]; 21 DAA, Imazamox 30 gm ai/ha
  % Weed control burn down symptoms generation Observed: 0%
[3]; 21 DAA, Imazamox 35 gm ai/ha
  % Weed control burn down symptoms generation Observed: 0%
[4]; at 14 days
  Control on targeted weeds, applied alone: no or very less control
[4]; at 21 days
  Control on targeted weeds, applied alone: no or very less control
[5]; 14 DAA, Imazamox 20 gm ai/ha
  % Weed control burn down symptoms generation Observed: 0%
[5]; 14 DAA, Imazamox 30 gm ai/ha
  % Weed control burn down symptoms generation Observed: 4%
[5]; 14 DAA, Imazamox 35 gm ai/ha
  % Weed control burn down symptoms generation Observed: 6%
[5]; 21 DAA, Imazamox 20 gm ai/ha
  % Weed control burn down symptoms generation Observed: 0%
[5]; 21 DAA, Imazamox 30 gm ai/ha
  % Weed control burn down symptoms generation Observed: 0%
[5]; 21 DAA, Imazamox 35 gm ai/ha
  % Weed control burn down symptoms generation Observed: 0%
[6]; 14 DAA, Imazamox 20 gm ai/ha
  % Weed control burn down symptoms generation Observed: 0%
[6]; 14 DAA, Imazamox 30 gm ai/ha
  % Weed control burn down symptoms generation Observed: 0%
[6]; 14 DAA, Imazamox 35 gm ai/ha
  % Weed control burn down symptoms generation Observed: 0%
[6]; 21 DAA, Imazamox 20 gm ai/ha
  % Weed control burn down symptoms generation Observed: 0%
[6]; 21 DAA, Imazamox 30 gm ai/ha
  % Weed control burn down symptoms generation Observed: 0%
[6]; 21 DAA, Imazamox 35 gm ai/ha
  % Weed control burn down symptoms generation Observed: 0%
[7]; 14 DAA, Imazamox 20 gm ai/ha
  % Weed control burn down symptoms generation Observed: 0%
[7]; 14 DAA, Imazamox 30 gm ai/ha
  % Weed control burn down symptoms generation Observed: 0%
[7]; 14 DAA, Imazamox 35 gm ai/ha
  % Weed control burn down symptoms generation Observed: 0%
[7]; 21 DAA, Imazamox 20 gm ai/ha
  % Weed control burn down symptoms generation Observed: 0%
[7]; 21 DAA, Imazamox 30 gm ai/ha
  % Weed control burn down symptoms generation Observed: 0%
[7]; 21 DAA, Imazamox 35 gm ai/ha
  % Weed control burn down symptoms generation Observed: 0%
[8]; 1 DAA, Imazamox 20 gm ai/ha
  Phytotoxicity score: 0
[8]; 1 DAA, Imazamox 30 gm ai/ha
  Phytotoxicity score: 0
[8]; 1 DAA, Imazamox 35 gm ai/ha
  Phytotoxicity score: 0
[8]; 3 DAA, Imazamox 20 gm ai/ha
  Phytotoxicity score: 0
[8]; 3 DAA, Imazamox 30 gm ai/ha
  Phytotoxicity score: 0
[8]; 3 DAA, Imazamox 35 gm ai/ha
  Phytotoxicity score: 0
[8]; 7 DAA, Imazamox 20 gm ai/ha
  Phytotoxicity score: 0
[8]; 7 DAA, Imazamox 30 gm ai/ha
  Phytotoxicity score: 0
[8]; 7 DAA, Imazamox 35 gm ai/ha
  Phytotoxicity score: 0
[8]; 14 DAA, Imazamox 20 gm ai/ha
  Phytotoxicity score: 0
[8]; 14 DAA, Imazamox 30 gm ai/ha
  Phytotoxicity score: 0
[8]; 14 DAA, Imazamox 35 gm ai/ha
  Phytotoxicity score: 0
[8]; 21 DAA, Imazamox 20 gm ai/ha
  Phytotoxicity score: 0
[8]; 21 DAA, Imazamox 30 gm ai/ha
  Phytotoxicity score: 0
[8]; 21 DAA, Imazamox 35 gm ai/ha
  Phytotoxicity score: 0
